This is an account of results in US20130316963A1, “INNATE DEFENCE REGULATORY PEPTIDE COMPOSITIONS FOR TREATMENT OF ARTHRITIS” (UNIVERSITY OF MANITOBA, priority 2010, published 2013).

This data set concerns human FLS cells. In words: Cellular cytotoxicity by release of lactate dehydrogenase (LDH). In kind it is cell-based. The conditions noted are these: presence and absence of cytokine stimulation, 24 hr; IDR-1002 100 μg/ml, IDR-1 200 μg/ml; data not shown. As for the experimental part:
Synovial tissues were obtained from patients with OA in accordance to a protocol by the Institutional Review Board at the University of Manitoba. FLS cells were isolated from the synovial tissues following the procedure taught by Kammouni et al. (2007, Regulation of apoptosis in fibroblast-like synoviocytes by the hypoxia-induced Bcl-2 family member Bcl-2/adenovirus E1B 19-kd protein-interacting protein 3. Arthritis Rheum. 56:2854-2863). […] Cellular cytotoxicity was evaluated by monitoring the release of lactate dehydrogenase (LDH) employing a colorimetric detection kit (Roche Diagnostics, Laval, QC, Canada).
Inflammatory cytokines TNF-α and IL-1β stimulate cells types such as FLS, chondrocytes and macrophages resulting in the production of MMP-3 in arthritic joints. […] In this study we evaluated the impact of IDR peptides on TNF-α and IL-1β-induced MMP-3 production. […] The peptides were not cytotoxic to the FLS cells in the presence and absence of cytokine stimulation, as determined by monitoring the tissue culture supernatants for the release of LDH after 24 hr of stimulation (data not shown). Tissue culture supernatants were monitored after 24 hr of stimulation for MMP-3 production by ELISA. […]

The structures appear in SMILES notation. Residues, ends and D or L forms follow the SMILES beside them.

Consider `CC[C@H](C)[C@H](NC(=O)[C@H](CCCNC(=N)N)NC(=O)[C@H](CO)NC(=O)[C@@H](N)CCCCN)C(=O)N[C@H](C(=O)N1CCC[C@H]1C(=O)N[C@@H](C)C(=O)N[C@H](C(=O)N1CCC[C@H]1C(=O)N[C@H](C(=O)N[C@@H](CO)C(=O)N[C@@H](CC(C)C)C(=O)N[C@@H](CC(C)C)C(=O)O)C(C)C)[C@@H](C)CC)C(C)C` [IDR-1, KSRIVPAIPVSLL, reference compound] (H-KSRIVPAIPVSLL-OH), for which the “cytotoxicity to FLS cells (release of LDH)” value was “not cytotoxic”.
